Measurements taken from PubChem BioAssay (NCI).
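The compound was tested at five concentrations on cells cultured in 96-well plates, with a 48-hour exposure period. GI50 is the concentration that inhibits growth by half. TGI marks complete inhibition of growth.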

Assays:
Experiment in all cases: growth of human tumour cells (NCI), 48 h
[1] = system: SNB-75 CNS
[2] = system: HCT-15 colon
[3] = system: HOP-92 NSCLC
[4] = system: OVCAR-8 ovarian
[5] = system: UACC-257 melanoma
[6] = system: K-562 leukemia
[7] = system: SF-268 CNS
[8] = system: ACHN renal
[9] = system: MDA-MB-435
[10] = system: SF-539 CNS

Row | Compound | GI50 [1] | TGI [1] | GI50 [2] | TGI [2] | GI50 [3] | TGI [3] | GI50 [4] | TGI [4] | GI50 [5] | TGI [5] | GI50 [6] | TGI [6] | GI50 [7] | TGI [7] | GI50 [8] | TGI [8] | GI50 [9] | TGI [9] | GI50 [10] | TGI [10]
1 | COC(=O)c1cc2c3ccccc3[nH]c2c2ncccc12 | 17.3 µM | 65.3 µM | 21.4 µM | > 100 µM | > 100 µM | > 100 µM | 61.2 µM | > 100 µM | > 100 µM | > 100 µM | 75.3 µM | > 100 µM | 53.5 µM | > 100 µM | 11.2 µM | > 100 µM | > 100 µM | > 100 µM | 17.4 µM | > 100 µM
2 | CNC(=O)OCc1c(COC(=O)NC)c(-c2ccc(Cl)c(Cl)c2)n2c1SCC2 | – | 25.1 µM | – | 28.1 µM | – | 17.6 µM | – | 39.8 µM | – | 31.7 µM | – | 52 µM | – | 32.9 µM | – | 17.6 µM | – | 33.3 µM | – | 26.9 µM
3 | CC1=C(CCCNS(C)(=O)=O)C2=C(C)C3(CC3)[C@@](C)(O)C(=O)C2=C1 | 0.342 µM | 1.67 µM | 1.23 µM | > 100 µM | 0.303 µM | 1.41 µM | 0.518 µM | 5.36 µM | 1.78 µM | 4.41 µM | 61.8 µM | > 100 µM | 0.373 µM | 14.2 µM | 2.14 µM | 7.58 µM | 1.99 µM | 5.41 µM | 0.969 µM | 3.26 µM
4 | COc1cc(/C=C/c2cc(/C=C/c3ccc(O)c(OC)c3)n(-c3ccccc3)n2)ccc1O | – | – | – | – | 0.452 µM | 4.25 µM | 0.466 µM | 3.55 µM | 1.22 µM | 4.72 µM | – | – | – | – | – | – | 0.0415 µM | 0.191 µM | – | –
5 | NCC(=O)NS(=O)(=O)OC[C@H]1O[C@@H](n2cnc3c(N)ncnc32)[C@H](O)[C@@H]1O | 1.14 µM | 3.32 µM | 2.92 µM | 10.1 µM | 2.97 µM | 6.78 µM | 2.48 µM | 7.59 µM | – | – | 3.71 µM | 11.8 µM | 0.503 µM | 5.65 µM | 2.89 µM | 8.37 µM | 1.84 µM | 3.49 µM | 1.43 µM | 3.58 µM
6 | Nc1ccn(C2O[C@H](CO)[C@@H](O)[C@@H]2O)c(=O)n1 (some centres not stated) | 41.5 µM | > 100 µM | – | > 100 µM | 33.8 µM | > 100 µM | 53.8 µM | > 100 µM | – | > 100 µM | – | – | – | > 100 µM | 42.9 µM | > 100 µM | – | > 100 µM | – | > 100 µM
7 | Cn1cc(-c2cnc3ccc(NC(=O)Nc4ccc(F)c(Br)c4)cc3n2)cn1 | 1.97 µM | 4.8 µM | 1.92 µM | 4.45 µM | 1.6 µM | 4.41 µM | 1.83 µM | 4.34 µM | 1.92 µM | 4.57 µM | – | – | 2.38 µM | 7 µM | 1.81 µM | 4.31 µM | 1.81 µM | 3.95 µM | 1.75 µM | 3.4 µM
8 | COc1ccc2c(c1)c(-c1nc(-c3cn(C)c4ncccc34)cs1)cn2CCCN1CCCCC1 | 1.34 µM | 2.72 µM | 1.53 µM | 2.96 µM | 1.67 µM | 3.24 µM | – | – | 1.92 µM | 3.66 µM | 1.64 µM | 3.4 µM | 1.6 µM | 3.21 µM | 1.69 µM | 3.06 µM | 1.63 µM | 3.03 µM | 1.75 µM | 3.22 µM
9 | CC1OC(O[C@H]2C[C@@H](O)[C@]3(CO)[C@H]4[C@H](O)C[C@]5(C)[C@@H](C6=CC(=O)OC6)CC[C@]5(O)[C@@H]4CC[C@]3(O)C2)C(O)C(O)C1O (some centres not stated) | – | – | 17.3 µM | 31.9 µM | 24.4 µM | 57.6 µM | 19.2 µM | 34.8 µM | 19.5 µM | 39.2 µM | – | – | 18.9 µM | 33.5 µM | 20.2 µM | 35.5 µM | 19.5 µM | 38.6 µM | 21.4 µM | 39.5 µM
10 | COC(=O)CCCCN=Cc1c(O)c(O)c(C(C)C)c2cc(C)c(-c3c(C)cc4c(C(C)C)c(O)c(O)c(C=NCCCCC(=O)OC)c4c3O)c(O)c12 | 2.6 µM | > 32.5 µM | 1.06 µM | > 32.5 µM | 0.782 µM | 2.64 µM | 0.959 µM | > 32.5 µM | – | – | 0.64 µM | 4.09 µM | 1.34 µM | > 32.5 µM | 1.15 µM | > 32.5 µM | 1.46 µM | > 32.5 µM | 1.53 µM | > 32.5 µM
11 | O=C1/C(=C/c2ccc(Cl)cc2Cl)N=C(c2ccccc2)N1Cc1ccco1 | – | – | 37.7 µM | > 100 µM | 20.7 µM | 47.4 µM | 20.5 µM | 48.4 µM | 36.5 µM | > 100 µM | 41.1 µM | > 100 µM | 20.2 µM | 49.5 µM | 11.8 µM | 28 µM | 43.6 µM | > 100 µM | 23.7 µM | 55.6 µM
12 | COc1cnc2cc(C(=O)O)c3c([N+](=O)[O-])cccc3c2c1 | – | > 100 µM | – | > 100 µM | – | > 100 µM | – | > 100 µM | – | > 100 µM | – | > 100 µM | – | > 100 µM | – | > 100 µM | – | > 100 µM | – | –
13 | CN1CCN(Cc2ccc(NC(=O)c3cncc(C#Cc4cnc(N)c5ccc(C#N)cc45)c3)cc2C(F)(F)F)CC1 | 0.123 µM | 0.876 µM | 0.122 µM | 0.787 µM | 0.0244 µM | 0.344 µM | 0.141 µM | 1.32 µM | 0.136 µM | 3.09 µM | – | – | 0.0497 µM | 0.859 µM | 0.0237 µM | 0.526 µM | 0.0286 µM | 0.675 µM | 0.101 µM | 0.598 µM
14 | O=C(c1ccco1)c1nc2ccc(C(F)(F)F)cc2[n+]([O-])c1C(F)(F)F | 10.6 µM | 37.8 µM | > 100 µM | > 100 µM | – | – | 50 µM | > 100 µM | 26.5 µM | 99.4 µM | 31.3 µM | > 100 µM | 34.3 µM | > 100 µM | 54.5 µM | > 100 µM | > 100 µM | > 100 µM | 54 µM | > 100 µM
